Values of other authors in patent US20090306023A1, “STABLE ORGANIC PEROXIDE COMPOSITIONS” (priority 2005, published 2009).

Settings: room temperature

Compound: O=C(O)c1ccccc1O [Salicylic acid, 2-hydroxybenzoic acid]
- limit of solubility in water: approximately 0.2%
